According to PMC4519333, “Preclinical Evaluation of a Potential GSH Ester Based PET/SPECT Imaging Probe DT(GSHMe)2 to Detect Gamma Glutamyl Transferase Over Expressing Tumors” (PLoS ONE, 2015):
Like-named read-outs stand apart in the source and are kept apart here.

Key:
[1] = in vivo; set-up: species or system mice; conditions: BALB/c, mouse, iv, 0.1 mg/kg body weight, total radioactivity
Description: Biodistribution studies were also performed on tumor bearing BALB/c mice. 0.1 mg/Kg body weight ^68Ga-DT(GSHMe)2 (~25 ± 1.5 MBq) was injected through tail vein and at different time points viz., 30 min, 1 and 2 h animals were sacrificed and organs were dissected out. Uptake of radioactivity in individual organ is noted and %ID/g is then calculated.

[2] = test system: athymic mice bearing BMG-1 tumors; experiment: Micro PET/CT small animal imaging with ROI analysis; assay type: in vivo; conditions: blocking dose ~5 mg/Kg native GSH, PET 2 h post injection, BMG-1 tumor
Description: (§1) Athymic male mice were xenografted with BMG-1 human tumor cell line (0.1 mL of cell suspension containing ~5 ×10^6 BMG cells) in the flank region of the hind limb. BALB/c mice were inoculated with EAT murine tumor cells (5–6 × 10^6) in the flank region of the right hind limb. An inflammation lesion was induced in the fore limb by intramuscular injection of turpentine oil (100 μL) 48 h before imaging. For Scintigraphy, (n = 6) mice used for imaging, biodistribution studies (n = 32 mice) for two experiments 4 mice/group for 4 time points and blood kinetics (n = 18).
(§2) Xenografted experimental models were intravenously administered 0.1mg/Kg body weight ^68Ga-DT(GSHMe)2 (37 ± 2.2 MBq) and 0.25 mg/Kg Body weight ^99mTc-DT(GSHMe)2 (29.6 ± 1.8 MBq) via tail vein for PET and SPECT respectively. Blocking dose of ~ 5 mg/Kg body weight of GSH was administered intravenously in the experimental animal. The acquisition was performed 2 h post injection. The ratios were calculated from counts per pixel of individual ROI (Region of interest) for semi-quantitative analysis to understand the distribution and localization.

[3] = Log P calculation (octanol/PBS partition); assay type: physicochemical
Description: The value of partition coefficient of radiolabeled […] calculated and expressed as log P. The radiolabeled […] passed through 0.22 μ filter and approximately 10.2 ± 1.5 MBq of labeled compound was diluted in PBS, pH 7.4. To this equal volume of 1-octanol was added. The mixture was thoroughly vortexed for 10 min and then centrifuged at 5000 rpm for 5 min. […] The measurement was repeated thrice. The partition coefficient (P) was calculated using the following equation wherein, P = (counts in octanol fraction) / (counts in PBS fraction). For each value of P, log P value is calculated.

[4] = biological target: T1, GGT on the surface of BMG-1 cells (Homo sapiens, UniProt P19440); experiment: Cell binding studies on BMG-1 cells (Scatchard); conditions: 2 h, 37°C, Scatchard plot
T1 construct: endogenous in cells; host or cells: BMG-1 cerebral glioma cells (monolayer)
T1 sequence (P19440 1-380 limits assumed): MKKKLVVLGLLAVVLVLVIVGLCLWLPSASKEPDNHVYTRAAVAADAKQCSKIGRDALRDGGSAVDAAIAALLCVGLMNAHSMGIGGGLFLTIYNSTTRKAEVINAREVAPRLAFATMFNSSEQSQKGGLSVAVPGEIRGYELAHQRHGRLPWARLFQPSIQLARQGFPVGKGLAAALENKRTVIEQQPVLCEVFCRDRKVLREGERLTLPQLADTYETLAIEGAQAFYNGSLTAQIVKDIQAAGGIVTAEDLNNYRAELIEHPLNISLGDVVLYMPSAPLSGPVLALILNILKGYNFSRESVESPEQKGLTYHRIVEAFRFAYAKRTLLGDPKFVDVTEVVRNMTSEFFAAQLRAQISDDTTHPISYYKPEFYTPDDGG
T1 sequence (P19440 381-569 limits assumed): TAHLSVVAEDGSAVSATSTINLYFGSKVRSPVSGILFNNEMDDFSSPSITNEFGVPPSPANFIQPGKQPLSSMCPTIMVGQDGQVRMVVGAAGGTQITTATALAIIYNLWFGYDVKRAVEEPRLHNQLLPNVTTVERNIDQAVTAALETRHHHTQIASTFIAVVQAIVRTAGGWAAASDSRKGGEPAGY
Description: (§3) The specificity of ^99[…])2 to bind externally on tumor cells were examined by receptor binding assays on EAT cells isolated from the ascitic fluid of BALB/c Mice. Cells were diluted to 2 x 10^6 cells per mL and were aliquoted in different micro centrifuge tubes. Cells were washed twice with HBSS and finally resuspended in 1 mL of HBSS. Cells were then treated with various concentration of ^99[…]) for 2 h at 37°C. […] Specific binding was obtained by subtracting nonspecific binding from total binding. At the end of each incubation time, the cells were washed with cold PBS twice and pelleted down. Finally, cells were lysed and cell-associated radioactivity was determined by gamma counting. The total protein content of cells was estimated by Bicinchoninic acid (BCA) method. Similarly the binding experiments were performed on monolayer of BMG-1 cells (2 x 10^6) and were treated with ^99[…]) for 2 h at 37°C. […] Cells were lysed and cell associated radioactivity was determined. The total protein content was determined by BCA method. Scatchard Plot were plotted to determine Kd and Bmax.

[5] = in vivo; set-up: species or system mice; conditions: BALB/c, mouse, iv, 0.25 mg/kg body weight, total radioactivity
Description: Radiolabeled ^99mTc-DT(GSHMe)2 (0.25 mg/Kg body weight) in a volume of 150 μL (11.1 ± 1.2 MBq) was carefully injected through the tail vein of each BALB/c mice xenografted with EAT Tumors in the hind limb. At 30 min, 1, 2 and 4 h post injection mice were sacrificed and different organs and tissues were dissected out. All the organs and tissues were rinsed in saline, weighed and counted in a gamma counter. Uptake of the radiotracer in each tissue was calculated and expressed as a percentage injected dose per gram of the tissue (% ID/g) and corrected for ^99mTc decay.

[6] = test system: BALB/c mice bearing EAT tumor and turpentine oil inflammation; experiment: SPECT imaging, tumor versus inflammation; assay type: in vivo; conditions: 2 h post i.v., EAT tumor hind limb, inflammation fore limb
Description: as §1, §2

[7] = test system: EAT cells; experiment: Time course and kinetics of uptake; assay type: cell-based, mice
Description: EAT cells were isolated from ascitic fluid of BALB/c mice and were diluted to 3 x 10^6 cells/mL. Cells were aliquoted in different micro centrifuge tubes and were treated with 200 μM of ^99mTc-DT(GSHMe)2 for different time intervals (0, 10, 30 sec, 1, 2, 5, 10, 30 min, 1 and 2 h). After the treatment, cells were centrifuged at 2000 rpm for 5 min and supernatant was carefully removed. Followed by three washes of cold saline and acidic wash buffer, cells were centrifuged to yield the pellet. The pellet was dissolved in 500 μL of lysis buffer. The amount of radioactivity (CPM) in cell lysate was determined by gamma counter. Later, after the activity decayed, total protein from the cells was estimated by BCA method of protein estimation. Absorbance values were determined at 595 nm on a multi plate reader. A standard plot was constructed taking various dilutions of BSA. Drug uptake was calculated and plotted.

[8] = set-up: species or system mice; conditions: mouse, in vivo, iv
Description: Blood clearance was performed to observe the rate of clearance of drug post administration. Radiolabeled conjugate 0.25 mg/Kg body weight of ^99mTc-DT(GSHMe)2 (22.2 ± 2.8 MBq) was administered intravenously through the tail vein of the mice. Blood samples were withdrawn at different time intervals (5, 15, 30 min, 1, 2 and 24 h). Decay corrected radioactivity is expressed as % ID, assuming a weight based theoretical blood volume as 7% of the body weight.

[9] = biological target: T2, GGT on the surface of EAT cells (Mus musculus, UniProt Q60928); experiment: Cell binding studies on EAT cells (Scatchard); set-up: species or system mice; conditions: 2 h, 37°C, Scatchard plot
T2 construct: endogenous in cells; host or cells: Ehrlich Ascites tumor (EAT) cells, strain F-3, passaged in BALB/c mice
T2 sequence (Q60928 1-379 limits assumed): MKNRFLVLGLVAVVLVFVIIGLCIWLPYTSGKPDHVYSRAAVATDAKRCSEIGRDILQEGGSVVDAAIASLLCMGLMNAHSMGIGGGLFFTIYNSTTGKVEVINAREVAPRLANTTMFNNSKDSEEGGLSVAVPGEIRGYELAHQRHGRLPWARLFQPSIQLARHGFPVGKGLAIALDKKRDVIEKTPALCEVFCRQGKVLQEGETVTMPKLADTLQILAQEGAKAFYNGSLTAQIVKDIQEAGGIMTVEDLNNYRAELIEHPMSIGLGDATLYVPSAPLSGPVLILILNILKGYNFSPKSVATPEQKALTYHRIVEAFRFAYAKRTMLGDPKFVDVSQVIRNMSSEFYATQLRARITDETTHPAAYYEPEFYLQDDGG
T2 sequence (Q60928 380-568 limits assumed): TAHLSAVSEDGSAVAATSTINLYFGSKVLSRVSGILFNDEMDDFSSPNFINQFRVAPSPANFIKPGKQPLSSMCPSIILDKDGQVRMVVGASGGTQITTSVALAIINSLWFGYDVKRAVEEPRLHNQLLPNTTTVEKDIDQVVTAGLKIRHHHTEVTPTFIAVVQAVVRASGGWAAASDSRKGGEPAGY
Description: as §3

[10] = In vivo total glutathione estimation from tumor, RBC and plasma; set-up: species or system BALB/c mice bearing EA tumors; conditions: n = 3
Description: Levels of total Glutathione (GSH/GSSG) were estimated from tumor, RBC and plasma isolated from BALB/c mice bearing EA tumors, after injection of unlabeled 100 μM DT(GSHMe)2 (100 μL). At time points (15 min, 30 min, 1, 2and 4 h), blood samples were withdrawn and tumors were excised. Tumors were homogenized in 3 volumes of 5% sulfosalicylic acid (SSA) and centrifuged at 10,000 x g for 10 min at 4°C. Blood was centrifuged and the plasma fraction was separated from RBC pellet. To each RBC and plasma fractions, equal volume of 5% SSA was added, followed by vortexing and centrifugation at 10,000 x g for 10 min at 4°C. Supernatant was collected and used for estimating total glutathione levels.

[11] = test system: cell lines; experiment: MTT assay (cytotoxicity); assay type: cell-based
Description: To confirm the results from SRB assay, MTT assay which measures cell metabolic activity was performed to correlate the results obtained using SRB assay. Exponentially growing cells were plated in a 96 well microtitre plate at a cell density of 4000 cells per well 24 h before treatment. Cells were treated with varying concentrations of the drug for different time intervals (24, 48, and 72 h). At the end of treatment, both the treated cells and untreated control were incubated with MTT at final concentration of 0.1mg/mL for 3 h at 37°C and the medium was removed thereafter. Cells from each treatment were lysed and the formazan crystals were dissolved using 150 μL of DMSO for 30 min. Optical density of extracts at 570 nm was measured (reference filter: 630 nm). Surviving fraction was determined and was plotted against concentration as a function of time.

[12] = test system: BMG-1 cells; experiment: Cell cycle analysis by flow cytometry (PI); assay type: cell-based, human
Description: 10^5 cells per well were plated in a Petri dishes and kept in the incubator overnight at 37°C. Following day, cells were treated with different drug concentrations (0.01 μM –1000 μM). At specific time points, media was carefully removed and cells were harvested in micro centrifuge tubes. Cells were centrifuged at 1200 rpm for 6 min. Supernatant was removed and 700 μL of 80% cold ethanol was added drop wise. Pellet was uniformly dispersed and samples were stored at 4°C for at least 24 h. Samples were centrifuged to remove supernatant and RNAse at a final concentration of 0.5 mg/mL was added to the pellet and incubated at 37°C for 1 h. Finally Propidium Iodide (PI) solution at a final concentration of 10μg/mL was added and the samples were analyzed by flow cytometry.

[13] = test system: cell lines; experiment: Sulfo rhodamine B (SRB) assay (cytotoxicity); assay type: cell-based
Description: SRB assay was performed to estimate the cytotoxicity of DT(GSHMe)2. SRB binds to total protein content of the cells and is independent of metabolic activity. Cells were seeded at the density of 6000 cells per well in 96 well microtiter plate. Cells were treated with varying concentration of DT(GSHMe)2 from 0.001 μM-1000 μM for different time intervals (24, 48 and 72 h). At each time point, 100 μL of ice cold 10% (wt/vol) trichloroacetic acid (TCA) was added to each well and were incubated for 1 h at 4°C followed by washing the plate four times under running tap water. Plates were then air dried and 100 μL of 0.057% SRB solution was added in each well for 30 min. Plates were quickly rinsed four times with 1% (v/v) acetic acid and air dried. To develop color, 200 μL of 10 mM Tris base solution (pH 10.5) was added to each well and kept on gyratory shaker for 5 min. The color intensity was measured fluorometrically at excitation 488 nm and emission at 585 nm. Surviving fraction was calculated and plotted for the concentration range 0.001 μM-1000 μM as a function of time.

[14] = 0.25 h after injection of 100 μM unlabeled compound

SMILES: CCOC(=O)CNC(=O)[C@H](CS)NC(=O)CC[C@H](NC(=O)CN(CCN(CCN(CC(=O)O)CC(=O)N[C@@H](CCC(=O)N[C@@H](CS)C(=O)NCC(=O)OCC)C(=O)O)CC(=O)O)CC(=O)O)C(=O)O [68Ga-DT(GSHMe)2, metal not drawn]
- tissue to tissue ratio at 2 h [1]: 26.4
- block of uptake at tumor site by GSH [2]: 95.57%

SMILES: CCOC(=O)CNC(=O)[C@H](CS)NC(=O)CC[C@H](NC(=O)CN(CCN(CCN(CC(=O)O)CC(=O)N[C@@H](CCC(=O)N[C@@H](CS)C(=O)NCC(=O)OCC)C(=O)O)CC(=O)O)CC(=O)O)C(=O)O [99mTc-DT(GSHMe)2, metal not drawn]
- logD ([3]; pH 7.4): -1.31 ± 0.104
- Bmax [4]: 17.2 nM
- tissue to tissue ratio at 2 h [5]: 24
- tracer localisation tumor versus inflammation [6]: substantial amount of radiotracer concentration at tumor site
- maximal transport rate velocity (Vmax) [7]: 0.478 µM/min
- Km ([7]; Eadie-Hofstee, read-out: Michaelis constant (Km) of transport): 2.25 µM
- biological half-life t1/2 (Slow) [8]: 15.44
- t1/2 slow [8]: 15.44 h
- biological half-life t1/2 (Fast) ([8]; 0.25 mg/kg): 8.8 min
- Bmax [9]: 91.02 nM

SMILES: CCOC(=O)CNC(=O)[C@H](CS)NC(=O)CC[C@H](NC(=O)CN(CCN(CCN(CC(=O)O)CC(=O)N[C@@H](CCC(=O)N[C@@H](CS)C(=O)NCC(=O)OCC)C(=O)O)CC(=O)O)CC(=O)O)C(=O)O [DT(GSHMe)2, Diethylene triaminpentaacetic acid bis glutathione monoethylester]
- Plasma total glutathione [10, 14]: 0.13 ± 0.029 μmoles of GSH/ml
- RBC total glutathione [10, 14]: 0.38 ± 0.021 μmoles of GSH/ml
- Tumor total glutathione [10, 14]: 3 ± 0.007 μmoles of GSH/g tissue weight
- Plasma total glutathione ([10]; 0.5 h after injection): 0.16 ± 0.028 μmoles of GSH/ml
- RBC total glutathione ([10]; 0.5 h after injection): 0.39 ± 0.026 μmoles of GSH/ml
- Tumor total glutathione ([10]; 0.5 h after injection): 4.3 ± 0.019 μmoles of GSH/g tissue weight
- Plasma total glutathione ([10]; 1 h after injection): 0.28 ± 0.127 μmoles of GSH/ml
- RBC total glutathione ([10]; 1 h after injection): 0.45 ± 0.010 μmoles of GSH/ml
- Tumor total glutathione ([10]; 1 h after injection): 4.5 ± 0.070 μmoles of GSH/g tissue weight
- Plasma total glutathione ([10]; 2 h after injection): 0.32 ± 0.155 μmoles of GSH/ml
- RBC total glutathione ([10]; 2 h after injection): 0.5 ± 0.11 μmoles of GSH/ml
- Tumor total glutathione ([10]; 2 h after injection): 4.9 ± 0.010 μmoles of GSH/g tissue weight
- Plasma total glutathione ([10]; 4 h after injection): 0.23 ± 0.041 μmoles of GSH/ml
- RBC total glutathione ([10]; 4 h after injection): 0.39 ± 0.001 μmoles of GSH/ml
- Tumor total glutathione ([10]; 4 h after injection): 4.1 ± 0.010 μmoles of GSH/g tissue weight
- toxicity on cell lines ([11]; 100 μM concentration, in vitro evaluations on cell lines): minimal toxicity
- toxicity ([11]; MTT, lower concentration (below 100 μM), 24-72 h): nontoxic
- G1 cell population ([12]; BMG-1, 1 μM, 24 h): 83.2 ± 4.16%
- G1 cell population ([12]; BMG-1, 1000 μM, 24 h): 49.5 ± 2.47%
- increase of apoptotic cells versus control ([12]; BMG-1, 1000 μM, 24 h): approximately 14 folds
- apoptotic cells ([12]; BMG-1, 1000 μM, 24 h treatment): 23.4 ± 1.17%
- cell population remained viable ([13]; 1000 μM, 72 h): 11.57 ± 3.84%
- IC50 ([13]; cell line not stated, read-out: IC50 (nearly 50% cell lysis)): ~500 µM
- toxicity ([13]; lower concentration (below 100 μM)): nontoxic

SMILES: N[C@@H](CCC(=O)N[C@@H](CS)C(=O)NCC(=O)O)C(=O)O [glutathione, Glutathione, reference compound]
- logD ([3]; shake-flask 1-octanol/PBS pH 7.4, equal volumes, vortexed 10 min, centrifuged 5000 rpm 5 min, gamma counter, repeated thrice, read-out: Log P): -3.23 ± 0.141
